# Key:
# Format in all cases: in vivo
# Set-up in all cases: key: 0 is no effect; 10 is complete control
# [1] = test system: smallflower flatsedge (Cyperus difformis); assay: Test B flood test
# Method in brief: (§1)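 Read-out is a visual response score from 0 (no effect) to 10 (complete control), assigned by comparison with untreated controls. Treatment was applied at the 2-leaf stage, and plants stayed in the greenhouse for twelve to sixteen days before scoring.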
# [2] = test system: bamyardgrass (Echinochloa crus-galli); assay: Test B flood test
# Method in brief: as §1
# [3] = test system: duck salad (Heteranthera limosa); assay: Test B flood test
# Method in brief: as §1
# rice (Oryza sativa) = assay: Test B flood test
# Method in brief: as §1
# soybean (Glycine max) = assay: Test B pre-/postemergence
# Method in brief: (§2)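 Compounds in a surfactant-containing, non-phytotoxic solvent blend are applied to freshly planted seed (preemergence) and, concurrently, to seedlings of 2 to 18 cm at 1–4 leaves (postemergence). Plants stay in the greenhouse twelve to sixteen days and are then scored visually from 0 (no effect) to 10 (complete control).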
# corn (Zea mays) = assay: Test B pre-/postemergence; settings: for Corn plant response rating: Preemergence
# Method in brief: as §2
# [4] = test system: broadleaf signalgrass (Brachiaria decumbens); assay: Test B pre-/postemergence; settings: for B. signalgrass plant response rating: Preemergence
# Method in brief: as §2
# [5] = test system: wheat (Triticum aestivum); assay: Test B pre-/postemergence
# Method in brief: as §2
# wild oat (Avena fatua) = assay: Test B pre-/postemergence
# Method in brief: as §2
# [6] = test system: blackgrass (Alopecurus myosuroides); assay: Test B pre-/postemergence; settings: for Blackgrass plant response rating: Preemergence
# Method in brief: as §2
# [7] = test system: cocklebur (Xanthium strumarium); assay: Test B pre-/postemergence; settings: for Plant response rating, Cocklebur: Postemergence
# Method in brief: as §2
# [8] = test system: pigweed (Amaranthus retroflexus); assay: Test B pre-/postemergence
# Method in brief: as §2
# [9] = test system: momingglory (Ipomoea hederacea); assay: Test B pre-/postemergence
# Method in brief: as §2
# rape (Brassica napus) = assay: Test B pre-/postemergence
# Method in brief: as §2
# [10] = test system: sugar beet (Beta vulgaris); assay: Test B pre-/postemergence
# Method in brief: as §2
# [11] = test system: velvetleaf (Abutilon theophrasti); assay: Test B pre-/postemergence
# Method in brief: as §2
# [12] = test system: bedstraw (Galium aparine); assay: Test B pre-/postemergence; settings: for Plant response rating, Bedstraw: Postemergence; for Bedstraw plant response rating: Preemergence
# Method in brief: as §2
# [13] = test system: crabgrass (Digitaria sanguinalis); assay: Test B pre-/postemergence; settings: for Crabgrass plant response rating: Preemergence
# Method in brief: as §2
# [14] = test system: giant foxtail (Setaria faberii); assay: Test B pre-/postemergence
# Method in brief: as §2
# [15] = test system: purple nutsedge (Cyperus rotundus); assay: Test B pre-/postemergence; settings: for Nutsedge plant response rating: Preemergence
# Method in brief: as §2
# [16] = Rate 62 g/ha, Postemergence (flood test)
# [17] = Rate 125 g/ha, Postemergence section (flood test species)
# [18] = Rate 250 g/ha, Postemergence (flood test species)
# [19] = Rate 125 g/ha, Postemergence, flood test
# [20] = Rate 250 g/ha, Postemergence (so in the source)
structure (smiles),measurement,setting,value
Cc1cnc(-c2ccc(Cl)c(Cl)c2)nc1Cc1cccc(C(F)(F)F)c1 [Compound 27],"Plant response rating, S. Flatsedge",[1]; [16],5
same,S. Flatsedge plant response rating,[1]; [17],5
same,"Plant response rating, S. Flatsedge",[1]; [18],5
same,"Plant response rating, Barnyardgrass",[2]; [16],1
same,"Plant response rating, Barnyardgrass",[2]; [19],2
same,"Plant response rating, Barnyardgrass",[2]; [18],3
same,"Plant response rating, Ducksalad",[3]; [16],0
same,"Plant response rating, Ducksalad",[3]; [19],1
same,"Plant response rating, Ducksalad",[3]; [18],2
same,"Plant response rating, Rice",rice (Oryza sativa); [16],0
same,Rice plant response rating,rice (Oryza sativa); [17],1
same,"Plant response rating, Rice",rice (Oryza sativa); [18],1
same,"Plant response rating, Soybean","soybean (Glycine max); Rate 62 g/ha, Postemergence",5
same,Soybean plant response rating,"soybean (Glycine max); Rate 62 g/ha, Preemergence",0
same,Soybean plant response rating,"soybean (Glycine max); Rate 125 g/ha, Postemergence",5
same,"Plant response rating, Soybean","soybean (Glycine max); Rate 125 g/ha, Preemergence",0
same,"Plant response rating, Soybean","soybean (Glycine max); Rate 250 g/ha, Postemergence",7
same,"Plant response rating, Soybean",soybean (Glycine max); [20],0
same,"Plant response rating, Corn","corn (Zea mays); Rate 62 g/ha, Postemergence",2
same,Corn plant response rating,corn (Zea mays); Rate 62 g/ha,0
same,"Plant response rating, Corn","corn (Zea mays); Rate 125 g/ha, Postemergence",3
same,Corn plant response rating,corn (Zea mays); Rate 125 g/ha,0
same,"Plant response rating, Corn","corn (Zea mays); Rate 250 g/ha, Postemergence",3
same,"Plant response rating, Corn",corn (Zea mays); [20],0
same,"Plant response rating, B. signalgrass","[4]; Rate 62 g/ha, Postemergence",3
same,B. signalgrass plant response rating,[4]; Rate 62 g/ha,0
same,"Plant response rating, B. signalgrass","[4]; Rate 125 g/ha, Postemergence",5
same,B. signalgrass plant response rating,[4]; Rate 125 g/ha,1
same,"Plant response rating, B. signalgrass","[4]; Rate 250 g/ha, Postemergence",5
same,"Plant response rating, B. signalgrass","[4]; Rate 250 g/ha, Postemergence as printed in head r139 (second section for compounds 26-50)",3
same,"Plant response rating, Wheat","[5]; Rate 62 g/ha, Postemergence",3
same,Wheat plant response rating,"[5]; Rate 62 g/ha, Preemergence",0
same,Wheat plant response rating,"[5]; Rate 125 g/ha, Postemergence",4
same,"Plant response rating, Wheat","[5]; Rate 125 g/ha, Preemergence",0
same,"Plant response rating, Wheat","[5]; Rate 250 g/ha, Postemergence",4
same,"Plant response rating, Wheat",[5]; [20],1
same,"Plant response rating, Wild oats","wild oat (Avena fatua); Rate 62 g/ha, Postemergence",3
same,Wild oats plant response rating,"wild oat (Avena fatua); Rate 62 g/ha, Preemergence",0
same,Wild oats plant response rating,"wild oat (Avena fatua); Rate 125 g/ha, Postemergence",4
same,"Plant response rating, Wild oats","wild oat (Avena fatua); Rate 125 g/ha, Preemergence",1
same,"Plant response rating, Wild oats","wild oat (Avena fatua); Rate 250 g/ha, Postemergence",5
same,"Plant response rating, Wild oats",wild oat (Avena fatua); [20],3
same,"Plant response rating, Blackgrass","[6]; Rate 62 g/ha, Postemergence",4
same,Blackgrass plant response rating,[6]; Rate 62 g/ha,0
same,"Plant response rating, Blackgrass","[6]; Rate 125 g/ha, Postemergence",4
same,Blackgrass plant response rating,[6]; Rate 125 g/ha,2
same,"Plant response rating, Blackgrass","[6]; Rate 250 g/ha, Postemergence",5
same,"Plant response rating, Blackgrass",[6]; [20],4
same,"Plant response rating, Cocklebur",[7]; Rate 62 g/ha,7
same,Cocklebur plant response rating,"[7]; Rate 62 g/ha, Preemergence",0
same,"Plant response rating, Cocklebur",[7]; Rate 125 g/ha,7
same,"Plant response rating, Cocklebur",[7]; Rate 250 g/ha,9
same,"Plant response rating, Redroot pigweed","[8]; Rate 62 g/ha, Postemergence",7
same,Redroot pigweed plant response rating,"[8]; Rate 62 g/ha, Preemergence",2
same,Redroot pigweed plant response rating,"[8]; Rate 125 g/ha, Postemergence",9
same,Redroot pigweed plant response rating,"[8]; Rate 125 g/ha, Preemergence",6
same,"Plant response rating, Redroot pigweed","[8]; Rate 250 g/ha, Postemergence",10
same,"Plant response rating, Redroot pigweed",[8]; [20],7
same,"Plant response rating, Morningglory","[9]; Rate 62 g/ha, Postemergence",5
same,Morningglory plant response rating,"[9]; Rate 62 g/ha, Preemergence",1
same,Morningglory plant response rating,"[9]; Rate 125 g/ha, Postemergence",8
same,Morningglory plant response rating,"[9]; Rate 125 g/ha, Preemergence",2
same,"Plant response rating, Morningglory","[9]; Rate 250 g/ha, Postemergence",8
same,"Plant response rating, Morningglory",[9]; [20],2
same,"Plant response rating, Rape","rape (Brassica napus); Rate 62 g/ha, Postemergence",8
same,Rape plant response rating,"rape (Brassica napus); Rate 62 g/ha, Preemergence",1
same,Rape plant response rating,"rape (Brassica napus); Rate 125 g/ha, Postemergence",8
same,Rape plant response rating,"rape (Brassica napus); Rate 125 g/ha, Preemergence",2
same,"Plant response rating, Rape","rape (Brassica napus); Rate 250 g/ha, Postemergence",9
same,"Plant response rating, Rape",rape (Brassica napus); [20],3
same,"Plant response rating, Sugarbeets","[10]; Rate 62 g/ha, Postemergence",9
same,Sugarbeets plant response rating,"[10]; Rate 62 g/ha, Preemergence",0
same,Sugarbeets plant response rating,"[10]; Rate 125 g/ha, Postemergence",9
same,"Plant response rating, Sugarbeets","[10]; Rate 125 g/ha, Preemergence",1
same,"Plant response rating, Sugarbeets","[10]; Rate 250 g/ha, Postemergence",10
same,"Plant response rating, Sugarbeets",[10]; [20],8
same,"Plant response rating, Velvetleaf","[11]; Rate 62 g/ha, Postemergence",5
same,Velvetleaf plant response rating,"[11]; Rate 62 g/ha, Preemergence",0
same,Velvetleaf plant response rating,"[11]; Rate 125 g/ha, Postemergence",7
same,"Plant response rating, Velvetleaf","[11]; Rate 125 g/ha, Preemergence",0
same,"Plant response rating, Velvetleaf","[11]; Rate 250 g/ha, Postemergence",7
same,"Plant response rating, Velvetleaf",[11]; [20],1
same,"Plant response rating, Bedstraw",[12]; Rate 62 g/ha,8
same,Bedstraw plant response rating,[12]; Rate 62 g/ha,0
same,"Plant response rating, Bedstraw",[12]; Rate 125 g/ha,9
same,Bedstraw plant response rating,[12]; Rate 125 g/ha,0
same,"Plant response rating, Bedstraw",[12]; Rate 250 g/ha,9
same,"Plant response rating, Crabgrass","[13]; Rate 62 g/ha, Postemergence",3
same,Crabgrass plant response rating,[13]; Rate 62 g/ha,1
same,"Plant response rating, Crabgrass","[13]; Rate 125 g/ha, Postemergence",4
same,Crabgrass plant response rating,[13]; Rate 125 g/ha,2
same,"Plant response rating, Crabgrass","[13]; Rate 250 g/ha, Postemergence",6
same,"Plant response rating, Crabgrass",[13]; [20],5
same,"Plant response rating, Giant foxtail","[14]; Rate 62 g/ha, Postemergence",3
same,Giant foxtail plant response rating,"[14]; Rate 62 g/ha, Preemergence",2
same,Giant foxtail plant response rating,"[14]; Rate 125 g/ha, Postemergence",4
same,Giant foxtail plant response rating,"[14]; Rate 125 g/ha, Preemergence",5
same,"Plant response rating, Giant foxtail","[14]; Rate 250 g/ha, Postemergence",4
same,"Plant response rating, Giant foxtail",[14]; [20],9
same,"Plant response rating, Nutsedge","[15]; Rate 62 g/ha, Postemergence",2
same,Nutsedge plant response rating,[15]; Rate 62 g/ha,0
same,Nutsedge plant response rating,[15]; Rate 125 g/ha,0
same,"Plant response rating, Nutsedge",[15]; [20],0

# Source: patent US6525001B1, “Substituted pyrimidine and pyridine herbicides” (Mid-American Commercialization Corporation, priority 1997, dated 2003)
